Reference: PMC4871480, “A Miniaturized Screen of a Schistosoma mansoni Serotonergic G Protein-Coupled Receptor Identifies Novel Classes of Parasite-Selective Inhibitors” (PLoS Pathogens, 2016)
“Also recorded” adds a separate entry of the source. Like-named read-outs stand apart in the source and are kept apart here.

How the values were obtained:
Sm.5HTR [1] = target: T1, Sm.5HTR (Schistosoma mansoni, UniProt G4V5G4); assay: cell-based; assay type: cell-based; settings: for ligand type at Sm.5HTR: Fig 5F; for Emax: HEK293, read-out: 5-HT Emax; for potency (IC50) at Sm.5HTR: Fig 7 quadrant
Description: (§1) HEK293 cells (ATCC CRL-1573.3) were cultured in DMEM supplemented with 10% fetal bovine serum (FBS), penicillin (100 units/ml), streptomycin (100 μg/ml), and L-glutamine (290 μg/ml). Cells were transiently transfected (ViaFect, Promega) as per the manufacturer’s protocol at a density of 2x10^6 cells per T-25 cell-culture flask. Cells were transfected with plasmids encoding GloSensor (Promega) and either Sm.5HTR (Smp_126730, GenBank accession number KF444051.1) or Sm.5HTRL (KX150867), bothGPCRs being codon optimized for mammalian expression, or Hs.5HT7a (GenBank accession number NM_000872.4, R&D Systems) subcloned into pCS2(-). Cell culture reagents were from Invitrogen. Epitope tagged constructs were used to verify expression, and untagged constructs used for all luminescence assays.
(§2) For assays performed on adherent cells, HEK-293 cells were transferred one day post transfection to 96 well, solid white plates (Corning, cat # 3917) coated with 0.01% poly-L-lysine (Sigma Aldrich) at a density of 5 x 10^4 cells / well in DMEM supplemented with 1% dialyzed FBS (Gibco). After overnight culture (37°C/5% CO2), media was decanted and replaced with 100μL / well HBSS supplemented with 0.1% BSA, 20mM HEPES (pH 7.4) and GloSensor reagent. Plates were allowed to equilibrate at room temperature for two hours prior to performing luminescence assays (GloMax-Multi Detection System plate reader, Promega). Conditions for individual assays were described as per figure legends. The standard assay to detect changes in cAMP utilized the F22 sensor in media supplemented with IBMX (200μM). Ligands were added at a concentration of 20x per well for experiments (i.e. 5μl of drug solution added to 100μl of cells). […] For the resazurin reduction assay for cellular viability, cells were incubated with resazurin (final concentration, 10μM) and tested ligands with fluorescence measurements (560 nm excitation/590 nm emission) made at 1.5hr intervals.

Sm.5HTR [2] = target: T1, Sm.5HTR; assay: Antagonist washout (inactivating antagonist) GloSensor assay on suspension cells; assay type: cell-based; settings: for inhibition of Sm.5HTR after antagonist wash-out: 10μM for 30 mins, washout, 5-HT response 1hr later
Description: To test putative irreversible antagonists, assays on suspension cells were performed one day post transfection. […] Compounds were added at 10 μM, and after 30 minute incubation at room temperature cells were centrifuged (300 RCF, 5 minutes) and resuspended in fresh media. This wash step was repeated, and cells were resuspended in HBSS supplemented with 0.1% BSA, 20mM HEPES and GloSensor reagent. Cells were gently rotated to prevent aggregation and settling over the course of the two hour equilibration period, after which time they were transferred to 96 well plates at a density of 8 x 10^4 cells / 100μL per well and assays described for adherent cells.

[3] = test system: S. mansoni schistosomules; assay: Schistosomule contractility assay; assay type: in vivo, Schistosoma mansoni; settings: Schistosoma mansoni
Description: Biomphalaria glabrata (M-line) snails exposed to Schistosoma mansoni miracidia (Strain PR-1) were obtained from BEI Resources (Cat. number NR-21961) and cercaria were shed following exposure to light (1.5 hours). Cercaria were manually transformed into schistosomula by vortexing (3 x 45 seconds, each separated by 3 minutes on ice) and tails were removed by gradient centrifugation (24ml Percoll, 4ml 10X EMEM, 1.5ml penicillin-streptomycin, 1ml of 1M HEPES in 0.85% NaCl, 9.5ml distilled water) at 500g/15min at 4°C. Supernatant containing tails was discarded, and schistosomules were resuspended in Basch media and incubated (37°C, 5% CO2) overnight before conducting mobility assays. For contractility experiments, somules were incubated in 5-HT free Basch media to resolve a basal contractility rate. […] Schistosomules were incubated in 24 well plates (~200 schistosomules / 0.5mL media per well) for 30 minutes (37°C/5% CO2) prior to acquiring videos of schistosome movement (1 minute recordings / well) using a Nikon Coolpix 5700 camera affixed to a Nikon Eclipse TS100 microscope (10x objective). The WrmTrck plugin for ImageJ was used to quantify worm mobility. Briefly, the major axis of each schistosomule body length was extracted from the raw output of WrmTrck and an average length was determined for the duration of the recording. Contractions were quantified by determining the number of episodes during which the worm body length deviated from the average by over 20%. S. mansoni protocols were approved by the Iowa State University Institutional Biosafety Committee.

Hs.5HT7R = target: T2, Hs.5HT7R (Homo sapiens, UniProt P34969); assay: GloSensor cAMP assay in HEK293 cells expressing Hs.5HT7R; assay type: cell-based; settings: Fig 7 quadrant
T2 construct: host or cells: HEK293 (ATCC CRL-1573.3), transient transfection, pCS2(-) vector
Description: as §1, §2

adult schistosomes = assay: Adult schistosome mobility assay; assay type: in vivo, Schistosoma mansoni; settings: 10μM
Description: Female Swiss Webster mice exposed to Schistosoma mansoni cerceria (Strain PR-1) at 5–7 weeks old were obtained from BEI Resources (Cat. number NR-34792) and sacrificed 6–8 weeks post-infection. Mature S. mansoni were harvested from the mesenteric vasculature by portal perfusion. Briefly, mice were anesthetized in a CO2 chamber and sacrificed by cervical dislocation. Mice were perfused with sodium citrate (25mM) and adult schistosomes were harvested from the mesenteric veins. Schistosomes were washed in RPMI media containing penicillin (1000 units/mL), streptomycin (1000 μg/mL) and 25mM HEPES, then transferred to RPMI media supplemented with 2mM glutamine and 5% heat inactivated FBS. Worms were incubated overnight at 37°C, 5% CO2 before conducting assays. Recordings of adult schistosome movement were captured using a Zeiss Discovery v20 stereomicroscope and a QiCAM 12-bit cooled color CCD camera. Videos were acquired at a rate of four frames per second for one minute. Recordings of female worms were acquired at 7.6x magnification, 30 mm field of view and recordings of male worms were acquired at a 5.1x magnification, 45 mm field of view. Analysis was performed in ImageJ as described previously. Briefly, image (.tiff) stacks of each recording were imported and processed by converting to binary format so that pixel measurements represent area of the worms’ bodies. Mobility was quantified by measuring the difference in pixels resulting from subtracting the value of one frame (n) from those of the next frame in the sequence (n+1). This difference was expressed as a percentage of the pixels in the initial frame (n), providing a measurement of the worms’ movement over a period of 0.25 seconds. This calculation was performed for each frame in the video, and the results were averaged over the length of the recording. Values reported represent the mean (±) standard error of at least three independent experiments. Animal work was carried out with the oversight and approval of the Laboratory Animal Resources facility at the Iowa State University College of Veterinary Medicine.

Sm.5HTRL = Sm.5HTRL (Schistosoma mansoni, UniProt A0A173FEI8); assay: GloSensor cAMP assay in HEK293 cells expressing Sm.5HTRL; assay type: cell-based; settings: antagonists 10μM, 5-HT EC80 dose
Description: as §1, §2

[4] = EC50 (agonist, cAMP generation), F22 sensor with IBMX

T1 sequence (G4V5G4 entry or part of it): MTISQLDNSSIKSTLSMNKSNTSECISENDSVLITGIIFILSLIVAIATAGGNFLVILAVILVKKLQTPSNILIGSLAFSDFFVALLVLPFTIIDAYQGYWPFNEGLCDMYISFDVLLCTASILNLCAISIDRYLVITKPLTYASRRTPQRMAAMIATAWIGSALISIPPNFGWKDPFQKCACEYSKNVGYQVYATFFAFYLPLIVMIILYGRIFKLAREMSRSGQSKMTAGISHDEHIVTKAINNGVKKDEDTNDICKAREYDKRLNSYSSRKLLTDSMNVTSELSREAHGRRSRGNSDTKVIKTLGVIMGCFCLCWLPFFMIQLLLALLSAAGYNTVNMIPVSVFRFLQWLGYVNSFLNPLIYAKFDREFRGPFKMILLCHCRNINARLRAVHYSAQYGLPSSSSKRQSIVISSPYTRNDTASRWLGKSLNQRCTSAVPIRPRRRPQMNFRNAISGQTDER
T2 sequence (P34969 1-445 isoform P34969-2): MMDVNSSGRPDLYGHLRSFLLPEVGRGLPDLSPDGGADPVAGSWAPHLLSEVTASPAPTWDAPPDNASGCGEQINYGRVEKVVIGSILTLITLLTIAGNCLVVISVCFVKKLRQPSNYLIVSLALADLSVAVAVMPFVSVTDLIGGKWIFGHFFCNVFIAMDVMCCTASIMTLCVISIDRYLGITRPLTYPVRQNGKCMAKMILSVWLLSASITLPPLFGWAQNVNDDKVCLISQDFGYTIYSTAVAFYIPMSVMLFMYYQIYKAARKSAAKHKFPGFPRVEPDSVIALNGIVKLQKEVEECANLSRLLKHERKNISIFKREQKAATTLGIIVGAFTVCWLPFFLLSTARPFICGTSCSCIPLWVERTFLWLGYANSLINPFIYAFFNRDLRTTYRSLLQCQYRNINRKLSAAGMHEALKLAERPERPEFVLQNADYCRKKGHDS
Sequence of Sm.5HTRL (A0A173FEI8 entry or part of it): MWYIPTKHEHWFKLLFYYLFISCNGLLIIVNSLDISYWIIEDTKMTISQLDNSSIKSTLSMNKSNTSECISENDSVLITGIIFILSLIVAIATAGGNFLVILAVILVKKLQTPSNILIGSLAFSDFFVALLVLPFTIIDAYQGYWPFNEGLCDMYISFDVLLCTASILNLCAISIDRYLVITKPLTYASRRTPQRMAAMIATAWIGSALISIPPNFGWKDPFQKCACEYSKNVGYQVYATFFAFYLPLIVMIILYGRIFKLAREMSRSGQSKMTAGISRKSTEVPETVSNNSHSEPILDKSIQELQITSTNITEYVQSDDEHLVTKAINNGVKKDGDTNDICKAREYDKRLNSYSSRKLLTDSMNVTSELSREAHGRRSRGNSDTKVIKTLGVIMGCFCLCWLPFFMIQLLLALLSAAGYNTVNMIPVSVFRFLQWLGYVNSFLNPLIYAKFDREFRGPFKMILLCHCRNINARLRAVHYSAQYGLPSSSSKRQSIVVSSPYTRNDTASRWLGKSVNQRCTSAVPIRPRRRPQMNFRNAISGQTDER

Structure (SMILES): CN1C[C@H](CNC(=O)OCc2ccccc2)C[C@@H]2c3cccc4c3c(cn4C)C[C@H]21 [metergoline]
- ligand type at Sm.5HTR (Sm.5HTR [1]): Antagonist
- Kb (Sm.5HTR [1]; Schild regression, read-out: pKB ± S.E.M (converted)): 4570 nM
- agonist efficacy at Sm.5HTR (Sm.5HTR [1]; dose response, Fig 5A): no efficacy
- acute inhibition of 5-HT (10μM) response at Sm.5HTR (Sm.5HTR [1]; drug 10μM, preincubation): Inhibition of 5-HT response
- Kb (Sm.5HTR [1]; right-shift of 5-HT dose-response, read-out: KB (affinity constant, Schild regression)): 4530 nM
- inhibition of Sm.5HTR after antagonist wash-out (Sm.5HTR [2]): long-lasting inhibition

Structure (SMILES): CN1CCN(C2=Nc3cc(Cl)ccc3Nc3ccccc32)CC1 [clozapine]
- acute inhibition of 5-HT (10μM) response at Sm.5HTR (Sm.5HTR [1]): Inhibition of 5-HT response

Structure (SMILES): CN1C[C@H](C(=O)N[C@]2(C)O[C@@]3(O)[C@@H]4CCCN4C(=O)[C@H](Cc4ccccc4)N3C2=O)C=C2c3cccc4[nH]cc(c34)C[C@H]21 [ergotamine]
- EC50 (Sm.5HTR [1]; [4]): 232 nM
- ligand type at Sm.5HTR (Sm.5HTR [1]): Agonist
- Emax (Sm.5HTR [1]): 78 ± 2%
- EC50 (Sm.5HTR [1]; pEC50 ± S.E.M): 229 nM

Structure (SMILES): CN1C[C@H](C(=O)N[C@]2(C)O[C@@]3(O)[C@@H]4CCCN4C(=O)[C@H](Cc4ccccc4)N3C2=O)C[C@@H]2c3cccc4[nH]cc(c34)C[C@H]21 [dihydroergotamine]
- EC50 (Sm.5HTR [1]; [4]): 315 nM
- ligand type at Sm.5HTR (Sm.5HTR [1]): Agonist
- Emax (Sm.5HTR [1]): 52 ± 1%
- EC50 (Sm.5HTR [1]; pEC50 ± S.E.M): 316 nM

Structure (SMILES): COc1cc2c(cc1OC)C1CC(=O)C(CC(C)C)CN1CC2 (stereo not drawn) [tetrabenazine]
- potency (IC50) at Sm.5HTR (Sm.5HTR [1]): sub-μM potency
- GPCR inhibition profile compared with rotundine (Sm.5HTR [1]; Sm.5HTR vs Hs.5HT7R, Fig F in S1 Text): selectivity for Sm.5HTR retained
- inhibition at 100 µM ([3]; read-out: inhibition of 5-HT evoked contractility): ~50%
- potency (IC50) at Hs.5HT7R (Hs.5HT7R): supra-μM potency

Structure (SMILES): CSc1ccc2c(c1)C(N1CCN(C)CC1)Cc1ccccc1S2 (stereo not drawn) [methiothepin]
- acute inhibition of 5-HT (10μM) response at Sm.5HTR (Sm.5HTR [1]; drug 10μM, preincubation): antagonism of 5-HT stimulated cAMP generation; also recorded: Inhibition of 5-HT response
- inhibition of Sm.5HTR after antagonist wash-out (Sm.5HTR [2]): long-lasting inhibition
- potency for Sm.5HTR inhibition after washout (Sm.5HTR [2]; titration, Fig 6E): most potent

Structure (SMILES): CN1CCC(=C2c3ccccc3C=Cc3ccccc32)CC1 [cyproheptadine]
- acute inhibition of 5-HT (10μM) response at Sm.5HTR (Sm.5HTR [1]): acutely inhibited
- time to full reversal of inhibition after ligand removal (Sm.5HTR [2]; 10μM, 30 mins preincubation): ≤ 1 h

Structure (SMILES): COc1ccc2cc1Oc1ccc(cc1)C[C@H]1c3cc(c(OC)cc3CCN1C)Oc1c(OC)c(OC)cc3c1[C@H](C2)N(C)CC3 [tetrandrine]
- potency (IC50) at Sm.5HTR (Sm.5HTR [1]): sub-μM potency
- effect on 5-HT evoked increases in worm movement (adult schistosomes; 5-HT 100μM): lacked an inhibitory effect
- effect on basal movement of adult worms (adult schistosomes; worms at rest): enhanced movements of isolated female worms
- IC50 ([3]; read-out: IC50 (inhibition of 5-HT evoked contractions)): ≤ 1000 nM
- potency (IC50) at Hs.5HT7R (Hs.5HT7R): supra-μM potency

Structure (SMILES): COc1cc2nc(N(C)CCCNC(=O)C3CCCO3)nc(N)c2cc1OC (stereo not drawn) [alfuzosin]
- selectivity for Sm.5HTR over Hs.5HT7R (Sm.5HTR [1]; IC50 (Hs.5HT7R) / IC50 (Sm.5HTR)): clear selectivity for Sm.5HTR; also recorded: clear bias toward Sm.5HTR
- inhibition of 5-HT evoked cAMP generation through Sm.5HTRL (Sm.5HTRL): inhibited 5-HT evoked cAMP generation

Structure (SMILES): CNCC[C@@H](Oc1ccccc1C)c1ccccc1 [atomoxetine]
- selectivity for Sm.5HTR over Hs.5HT7R (Sm.5HTR [1]): clear selectivity for Sm.5HTR; also recorded: preferential selectivity toward Sm.5HTR
- inhibition of 5-HT evoked cAMP generation through Sm.5HTRL (Sm.5HTRL): inhibited 5-HT evoked cAMP generation
